Experimental data from patent US7615361B2, “Toxicity screening methods” (Ceetox, Inc., priority 2006, dated 2009).

Key:
[1] = tested on: NRK cells; assay: Predicted Ctox from Tox-Panel; assay type: cell-based, rat
Procedure: Studies such as these indicate that a preferred concentration for setting Ctox is the highest concentration at which there is no observed effect on any of the indicators being measured in the cluster analysis, especially a 24-hour cluster analysis. […] It will be apparent that 24 hour assays are more time-effective, and consequently, the 24 hour NOEL/Ctox represents a preferred data point to select as Ctox in a CATS assay. It will also be apparent that, with further time studies, it may be possible to select an equally suitable Ctox at other CATS assay time points (e.g., between 24 and 72 hours, or less than 24 hours).
In certain embodiments, the predicting comprises performing concentration response analyses of measurements from at least three separate assays that are employed in the cluster analysis. For example, in the cell health cluster, such predicting will involve monitoring the concentration response effect of the compound on a first health indicator which monitors cellular replication, a second cell health indicator which monitors mitochondrial function, and a third cell health indicator which monitors membrane integrity. Of course, it is understood that fourth, fifth, sixth or more cell health indicators also may be employed. From these concentration response analyses, the highest concentration of the chemical compound at which a measurable toxic effect of the chemical compound is not observable, i.e. NOEL, is determined and the Ctox is identified as the concentration that correlates to the NOEL. In choosing the concentrations of the compound for analysis, one of skill in the art should devise a dose response regimen which is selected to provide an indication of cell health at concentrations of at least two concentration values higher than the Ctox concentration.
(§1) The third experiment was done to evaluate the specificity and selectivity of the test compound in another non-tumor cell that was derived from normal rat kidney tissue. In this experiment the test compound has no effect on cell number of acute cell death up to the 500 dilution after 6 and 24 hr of exposure (FIG. 76C and 77C). Significant effects were observed on mitochondrial markers at dilutions that dropped pH to 3.7. The bar graph in FIG. 82 summarizes these effects. […] In contrast the rat tumor cell line was sensitive to the test compound and cell death occurred at the 500 dilution and could not be attributed to low pH.

[2] = Intracellular ATP levels; assay type: cell-based; settings: rat, NRK cells, read-out: ATP TC50
Procedure: Intracellular ATP Levels: Cellular Adenosine triphosphate (ATP) was determined with an assay based on a reaction between ATP+D-luciferin+oxygen catalyzed by luciferase to yield Oxyluciferin+AMP+PPi+CO2+light. The emitted light is proportional to the amount of ATP present. […] In addition, a unique cell lysis reagent inhibits endogenous ATPases and therefore stabilizes cellular ATP by preventing its degradation to ADP. ATP is present in all-living cells and declines rapidly upon cell death. In addition, this assay in combination with the MTT assay provides an indicator of mitochondrial activity and energy status of the cell.
Plates were analyzed immediately or stored at −20° C. until needed. On the day of analysis, the plates were thawed and calibration curve prepared with ATP in the same liquid matrix as samples. ATP was quantified by adding ATP substrate solution and then reading luminescence on a Packard Fusion Luminescence or equivalent plate reader.
Intracellular ATP Levels: ATP levels in treated cells could be determined by using the regression coefficients obtained from the linear regression analysis of the calibration curve. Thus, values could be expressed as pmoles ATP/million cells. Background corrected luminescence was used to determine percent change relative to controls by dividing treated values by control values and multiplying by 100.
as §1

[3] = Cell number (propidium iodide); assay type: cell-based; settings: human, read-out: Cell Number TC50; for CC50 at 72 h: SK-MEL28 cells, SK-MEL28, 72 HR, run #2
Procedure: Cell Proliferation: Cell proliferation in each well was measured with propidium iodide (PI). This specific nucleic acid binding dye fluoresces when intercalated within the nucleic acids. The 15 nm shift enhances PI fluorescence approximately 20 times while the excitation maxima are shifted 30-40 nm. During method development experiments, it was determined that Triton-X-100 was the best solution to permeabilize the H4IIE cells thereby allowing the PI access to intracellular RNA and DNA. Fluorescence was measured using a Packard Fusion plate reader or equivalent reader at 540 nm excitation and 610 nm emission.
Cell Proliferation: After incubation, the test compound was removed and Triton X-100 solution containing propidium iodide is added. The plate was incubated and read on a fluorescent plate reader. Data was collected as relative fluorescent units (RFU). The blank was subtracted from the final well RFU. It represents the average of the first and last columns which contain no cells on that particular plate. The controls are untreated cells allowed to grow on the same plate. The compounds are represented by several separate RFU data points for each of the tested concentrations. The percent change relative to controls was calculated by dividing the average RFU by the control cell RFU and multiplying by 100.
Dosing solutions were prepared in complete culture medium.

[4] = BrdU incorporation; assay type: cell-based, human; settings: human, run #2, read-out: BrdU TC50; for CC50 at 24 h: SK-MEL28, 24 HR; for CC50 at 72 h: SK-MEL28, 72 HR
Procedure: Bromodexoyurine (BrDU) Incorporation: This assay was used to monitor cumulative changes in DNA replication. The assay uses the thymidine analog BrdU to measure S-phase of cell replication and is considered to be the Gold Standard for cell proliferation. BrDU (10 μM) was included in the test compound dosing solution to allow BrDU incorporation during cell replication. BrDU was included for the duration of the exposure, 24 hr. After completion of exposure period, the cells were fixed and labeled with mouse monoclonal anti-BrDU (FITC). Fluorescence was measured using a Packard Fusion or equivalent plate reader at 485 nm excitation and 530 nm emission.
Bromodexoyurine (BrDU) Incorporation: After incubation, the test compound/BrDU solution was removed and cells were fixed. A solution containing mouse monoclonal anti-BrDU (FITC) was added and fluorescence was measured. Data were collected as relative fluorescent units (RFU). The blank was subtracted from the final well RFU. It represents the average of the first and last columns which contain no cells on that particular plate. The controls are untreated cells allowed to grow on the same plate. The compounds are represented by several separate RFU data points for each of the tested concentrations. The percent change relative to controls was calculated by dividing the average RFU by the control cell RFU and multiplying by 100.
Experiments were also conducted to verify the relationship between exposure time and the observed cytostatic effects of the test compound. An additional assay was used to monitor cumulative change in DNA replication. The assay uses the thymidine analog BrdU to measure S-phase of cell replication and is considered to be the Gold Standard for cell proliferation. […] The BrdU assay paralleled the MTT and propidium iodide assays. The apparent lower sensitivity of the BrdU assay is a reflection of the experimental design not the assay. BrdU data represents a cumulative effect from the beginning of exposure while the other assays are measuring one is remaining at the end of either the 24 hr or 72 hr exposure period. […] There was a trend toward increasing activity in caspase-3, a marker for cell apoptosis.

| Structure (SMILES) | Predicted Ctox ([1]; 6 HR) [µM] | Predicted Ctox ([1]; 24 HR) [µM] | CC50 at 6 h [2] [µM] | CC50 at 24 h [2] [µM] | CC50 at 24 h ([3]; HUVEC) [µM] | CC50 at 72 h [3] [µM] | CC50 at 24 h ([4]; SK-MEL28 cells) [µM] | CC50 at 72 h ([4]; SK-MEL28 cells) [µM] | CC50 at 24 h [4] [µM] | CC50 at 72 h [4] [µM] |
| --- | --- | --- | --- | --- | --- | --- | --- | --- | --- | --- |
| CC[C@@]1(O)C(=O)OCc2c1cc1n(c2=O)Cc2cc3ccccc3nc2-1 [CAMPTOTHECIN, Camptothecin] | 0.1 | 0.1 | 300 | 9 | 85 | 0.1 | 0.1 | 0.2 | – | – |
| C=C(C)[C@H]1Cc2c(ccc3c2O[C@@H]2COc4cc(OC)c(OC)cc4[C@@H]2C3=O)O1 [ROTENONE, Rotenone] | 1 | 1 | 10 | 10 | – | 1 | – | – | 9 | 44 |
